Source: patent publication US11873298B2, “Compounds and uses thereof” (JANSSEN PHARMACEUTICA NV, priority 2017, dated 2024)

Columns and labels:
SCD1 = target: T1, SCD1 (Homo sapiens, UniProt O00767); assay: Growth inhibition of humanized yeast strain expressing SCD1 as sole desaturase; assay type: cell-based
T1 construct: host or cells: S. cerevisiae ole1Δ strain (W303 pdr1Δ pdr3Δ background), plasmid pRS316 with TDH3 promoter and CYC1 terminator
T1 sequence (O00767 1-359): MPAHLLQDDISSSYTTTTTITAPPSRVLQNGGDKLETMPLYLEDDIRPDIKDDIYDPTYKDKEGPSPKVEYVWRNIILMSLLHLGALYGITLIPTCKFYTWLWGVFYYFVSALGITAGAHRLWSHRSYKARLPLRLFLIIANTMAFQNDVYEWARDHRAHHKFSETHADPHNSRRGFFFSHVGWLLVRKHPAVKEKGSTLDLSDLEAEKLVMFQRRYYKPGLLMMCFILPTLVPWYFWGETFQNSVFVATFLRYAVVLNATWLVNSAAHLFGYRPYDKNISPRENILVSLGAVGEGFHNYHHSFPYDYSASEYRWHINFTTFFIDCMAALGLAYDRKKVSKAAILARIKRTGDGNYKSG
Method in brief: (§1)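 OD600 growth read-out. ole1Δ yeast, pdr1Δ pdr3Δ, with Ole1/SCD1/SCD5 on a plasmid; SX-Ura media throughout; 2× cell density 0.02 in CSM-Galactose; DMSO compound dilutions; humidified 30° C.; Ole1 stopped at 24 h, SCD1/SCD5 at 40 h.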

SCD5 = target: T2, SCD5 (Homo sapiens, UniProt Q86SK9); assay: Growth inhibition of humanized yeast strain expressing SCD5 as sole desaturase; assay type: cell-based
T2 construct: host or cells: S. cerevisiae ole1Δ strain (W303 pdr1Δ pdr3Δ background), plasmid pRS316 with TDH3 promoter and CYC1 terminator
T2 sequence (Q86SK9 1-330): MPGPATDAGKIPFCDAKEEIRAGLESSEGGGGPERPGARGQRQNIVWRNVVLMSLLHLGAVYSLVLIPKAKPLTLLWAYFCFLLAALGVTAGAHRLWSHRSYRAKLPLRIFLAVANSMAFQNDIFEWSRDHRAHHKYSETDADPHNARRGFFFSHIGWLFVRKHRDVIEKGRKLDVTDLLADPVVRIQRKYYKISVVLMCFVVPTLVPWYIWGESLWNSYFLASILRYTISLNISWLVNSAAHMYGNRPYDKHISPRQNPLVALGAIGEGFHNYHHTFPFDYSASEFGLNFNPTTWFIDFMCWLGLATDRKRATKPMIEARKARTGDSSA
Method in brief: as §1

[1] = growth inhibition of humanized yeast strain expressing human SCD1
[2] = growth inhibition of humanized yeast strain expressing human SCD5
[3] = humanized yeast strain expressing SCD1
[4] = humanized yeast strain expressing SCD5

Row | Compound | IC50 (SCD1; humanized yeast strain, 40 h) | IC50 (SCD5; humanized yeast strain, 40 h) | also measured
1 | CC(C)C(=O)N1CCC(c2noc(-c3ccc4cnn(C5COC5)c4c3F)n2)CC1 [Compound 1112] | > 45 µM | 193 nM | –
2 | CC(C)C(=O)N1CCC(c2nc(-c3ccc4cnn(C5COC5)c4c3)no2)CC1 [Compound 1023] | > 45 µM | 295 nM | –
3 | CC(C)(C)OC(=O)N1CCC(c2noc(-c3ccc(OC4COC4)c(NC4COC4)c3)n2)CC1 [Compound 1006] | > 45 µM | 637 nM | –
4 | CC(C)(C)OC(=O)N1CCC(c2nc(-c3ccc4cnn([C@H]5CCOC5)c4c3)no2)CC1 [Compound 791] | > 45 µM | 10 nM | –
5 | CC(C)C(=O)N1CCC(c2noc(-c3ccc(F)c(N4CCOCC4)c3)n2)CC1 [Compound 1162] | 17.2 µM | 20.6 nM | –
6 | CC(C)(C)OC(=O)N1C[C@@H]2[C@H](C1)[C@H]2C(=O)NCc1ccc2[nH]ncc2c1 [Compound 794] | > 45 µM | > 45000 nM | –
7 | CCC(=O)N1CCN(c2noc(-c3ccc4cnn(C5COC5)c4c3)n2)CC(F)(F)C1 [Compound 1038] | > 45 µM | 2300 nM | –
8 | O=C(C1CCC1)N1CCN(c2noc(-c3ccnc(NC4COC4)c3)n2)CC1 [Compound 1001] | > 45 µM | 15600 nM | –
9 | CCC(=O)N1CCC(c2cc(-c3cc4c(cn3)cnn4C(C)C)no2)CC1 [Compound 1089] | > 45 µM | 4680 nM | –
10 | COC1(C(=O)N2CCN(c3noc(-c4ccc5cnn(C6COC6)c5c4)n3)CC2)CC1 [Compound 884] | > 45 µM | 10 nM | –
11 | CC(C)(C)COC(=O)N1CC(c2nc(-c3ccc4cnn(C5COC5)c4c3)no2)C1 [Compound 709] | – | – | IC50 (SCD1; [1]): > 45 µM; IC50 (SCD5; [2]): 4770 nM
12 | CC(C)(C)CC(=O)N1CCC(c2nc(-c3ccc4cnn(C5(C)COC5)c4c3)no2)CC1 [Compound 807] | > 45 µM | 247 nM | –
13 | Cc1noc(N2CCN(c3nc(-c4ccc5cnn(C(C)C)c5c4)no3)CC2)n1 [Compound 657] | – | – | IC50 (SCD1; [1]): > 45 µM; IC50 (SCD5; [2]): 9110 nM
14 | O=C1CC(c2noc(-c3ccc4cnn(C5COC5)c4c3)n2)CCN1CC1CC1 (stereo not drawn) [Compound 1141] | > 45 µM | 865 nM | –
15 | CC(C)(C)OC(=O)N1CCC(c2nc(-c3ccc4oc(=O)n(C5COC5)c4c3)no2)CC1 [Compound 649] | – | – | IC50 (SCD1; [1]): > 45 µM; IC50 (SCD5; [2]): 259 nM
16 | CO[C@H]1C[C@H](n2ncc3ccc(-c4noc(C5CCN(C(=O)OC(C)(C)C)CC5)n4)cc32)C1 [Compound 859] | > 45 µM | > 4000 nM | –
17 | O=C(c1ncccc1F)N1CCN(c2noc(-c3ccc4cnn(C5COC5)c4c3)n2)CC1 [Compound 972] | > 45 µM | 4440 nM | –
18 | O=C(C1CC2(CC2)C1)N1CCC(c2noc(-c3ccc4oc(=O)n(C5COC5)c4c3)n2)CC1 [Compound 1021] | > 45 µM | 223 nM | –
19 | CC(=O)N1CC(n2ncc3ccc(-c4noc(C5CCN(C(=O)OC(C)(C)C)CC5)n4)cc32)C1 [Compound 710] | – | – | IC50 (SCD1; [1]): > 45 µM; IC50 (SCD5; [2]): 50 nM
20 | CC1(OC(=O)N2CCC(c3noc(-c4ccnc(C5CCOC5)c4)n3)CC2)CC1 (stereo not drawn) [Compound 1016] | > 45 µM | 61.4 nM | –
21 | CC(C)(C)CC(=O)N1CCC(c2nc(-c3ccc4cnn(C(=O)C5COC5)c4c3)no2)CC1 [Compound 694] | – | – | IC50 (SCD1; [1]): > 45 µM; IC50 (SCD5; [2]): > 45000 nM
22 | O=C(C1CCC1)N1CCC(c2noc(-c3ccc4cnn(C5COC5)c4c3)n2)CC1 [Compound 880] | > 45 µM | 10 nM | –
23 | CC(C)n1nc(CCN(C)C)c2ccc(-c3noc(C4CCN(C(=O)OC(C)(C)C)CC4)n3)cc21 [Compound 759] | > 45 µM | > 45000 nM | –
24 | O=C(C1CCC1)N1CCC(c2noc(-c3ccc4cnn([C@@H]5CCOC5)c4c3)n2)CC1 [Compound 1093] | > 45 µM | 2.53 nM | –

Row | Compound | IC50 (SCD1; humanized yeast strain, 40 h) | IC50 (SCD5; humanized yeast strain, 40 h) | also measured
25 | O=C(OC1CC1)N1CCC(c2noc(-c3ccnc(C4CCOC4)c3)n2)CC1 (stereo not drawn) [Compound 1098] | > 45 µM | 62 nM | –
26 | CC(C)n1ncc2ccc(N3CC4(CCN(C(=O)OC(C)(C)C)CC4)OC3=O)cc21 [Compound 671] | – | – | IC50 (SCD1; [1]): > 45 µM; IC50 (SCD5; [2]): > 45000 nM
27 | COC(=O)N1CCN(c2nc(-c3ccc4cnn(C5CNC5)c4c3)no2)CC1 [Compound 913] | > 45 µM | 13800 nM | –
28 | CC1(OC(=O)N2CC(c3nc(-c4ccc5cnn(C6COC6)c5c4)no3)C2)CC1 [Compound 724] | – | – | IC50 (SCD1; [1]): > 45 µM; IC50 (SCD5; [2]): 1250 nM
29 | CC(C)(C)OC(=O)N1CCN(c2noc(-c3ccnc(N4CCOCC4)c3)n2)CC1 [Compound 943] | > 45 µM | > 45000 nM | –
30 | CC(C)n1ncc2ccc(-c3noc(C4CCN(C(=O)CNC(=O)c5ccc(F)cc5)CC4(F)F)n3)cc21 (stereo not drawn) [Compound 520] | – | – | IC50 (SCD1; [3]): > 45 µM; IC50 (SCD5; [4]): > 45000 nM
31 | CC(C)(C)OC(=O)N1CC=C(c2nsc(-c3ccc4cnn(C5COC5)c4c3)n2)CC1 [Compound 790] | > 45 µM | 53 nM | –
32 | CC(C)(C)OC(=O)N1CCC(c2nc(-c3ccc4cnn(CC5CCNC5=O)c4c3)no2)CC1 (stereo not drawn) [Compound 645] | – | – | IC50 (SCD1; [1]): 17.9 µM; IC50 (SCD5; [2]): 4470 nM
33 | COC(=O)N1CCC(c2noc(-c3ccc4cnn(C5CCOC5)c4c3)n2)CC1 (stereo not drawn) [Compound 813] | > 45 µM | 10 nM | –
34 | O=C(C1CC1)N1CCC(c2noc(-c3ccc4oc(=O)n(C5COC5)c4c3)n2)CC1 [Compound 1135] | > 45 µM | 188 nM | –
35 | CC1(CC(=O)N2CCN(c3noc(-c4ccc5cnn(C6COC6)c5c4)n3)CC2)CC1 [Compound 842] | > 45 µM | 10 nM | –
36 | CC(C)n1ncc2ccc(-c3nc(C4CCN(C(=O)c5ncccc5F)CC4)no3)cc21 [Compound 714] | – | – | IC50 (SCD1; [1]): > 45 µM; IC50 (SCD5; [2]): 230 nM
37 | COC(=O)N1CCC(c2cc(-c3cc4c(cn3)cnn4C(C)C)no2)CC1 [Compound 1088] | > 45 µM | 2520 nM | –
38 | CC(C)(C)OC(=O)N[C@H]1CC[C@@H](c2nc(-c3ccc4cnn(C5COC5)c4c3)no2)CC1 [Compound 683] | – | – | IC50 (SCD1; [1]): > 45 µM; IC50 (SCD5; [2]): 10100 nM
39 | CC(C)(C)OC(=O)N1CCC(c2noc(-c3cc(N4CCOCC4)ccc3F)n2)CC1 [Compound 1156] | > 45 µM | 493 nM | –
40 | COC(=O)N1CCCN(c2noc(-c3ccc4cnn(C5COC5)c4c3)n2)CC1 [Compound 857] | > 45 µM | 26800 nM | –
41 | Cn1ccc(-c2cc(-c3nc(C4CCN(C(=O)OC5(C)CC5)CC4)no3)ccn2)n1 [Compound 1185] | > 45 µM | > 45000 nM | –
42 | CC(C)n1ncc2ccc(-c3noc(C4CCN(C(=O)C5(C#N)CC5)CC4)n3)cc21 [Compound 688] | – | – | IC50 (SCD1; [1]): > 45 µM; IC50 (SCD5; [2]): 1500 nM
43 | CCC1(C(=O)N2CCC(c3noc(-c4ccc5cnn(C6COC6)c5c4)n3)CC2)CC1 [Compound 964] | 0.31 µM | 30 nM | –
44 | CC(CF)n1ncc2ccc(-c3noc(C4CCN(C(=O)CC(C)(C)C)CC4)n3)cc21 (stereo not drawn) [Compound 583] | – | – | IC50 (SCD1; [3]): > 45 µM; IC50 (SCD5; [4]): 989 nM
45 | O=C(c1ccccc1F)N1CCC(c2noc(-c3ccnc(Cl)c3)n2)CC1 [Compound 1132] | > 45 µM | > 45000 nM | –
46 | CC(C)(C)OC(=O)N1CCC(/C(N)=N/OC(=O)c2ccc3cnn(C4COC4)c3c2)CC1 [Compound 1134] | > 45 µM | 26.9 nM | –
47 | Cc1nn(C)c2cc(-c3noc(C4CCN(C(=O)CNC(=O)c5cccc(C#N)c5)CC4(F)F)n3)ccc12 (stereo not drawn) [Compound 604] | – | – | IC50 (SCD1; [3]): > 45 µM; IC50 (SCD5; [4]): 6120 nM
48 | COC(=O)N1CCN(c2nc(-c3cccc(C4CCOC4)c3)no2)CC1 (stereo not drawn) [Compound 837] | > 45 µM | 12500 nM | –
